Reference: publication PMC12680549, “Impact of Seasonal Variation on Antioxidant, Enzyme Inhibitory, and Anti‐Inflammatory Potentials of Cistus creticus Leaf Extracts” (ChemistryOpen, 2025)

Tested on: T1, urease
T1 construct: gene urea amidohydrolase; the jack bean enzyme is only a guess from the usual assay; Helicobacter pylori is named only as background
Assay: phenol-hypochlorite assay, […] nm
Format: biochemical, Canavalia ensiformis
Conditions: 17 mM urea, 30 °C, 50 min; enzyme source not stated

NC(N)=S [Thiourea]
Antiurease / IC50 μg mL^-1: 11.57 ± 0.68 µg/mL
